These are literature values, as cited in patent US20040037835A1, “Cytotoxic agents” (priority 1995, published 2004).

Molecules are shown by their SMILES.

For one data set, the target named is E. coli nitroreductase (Escherichia coli, UniProt P38489).
The subject of the next data set is CHO cells. The following applies: in vitro co-culture of Walker cells and CHO cells.

Sequence of E. coli nitroreductase (P38489 whole entry): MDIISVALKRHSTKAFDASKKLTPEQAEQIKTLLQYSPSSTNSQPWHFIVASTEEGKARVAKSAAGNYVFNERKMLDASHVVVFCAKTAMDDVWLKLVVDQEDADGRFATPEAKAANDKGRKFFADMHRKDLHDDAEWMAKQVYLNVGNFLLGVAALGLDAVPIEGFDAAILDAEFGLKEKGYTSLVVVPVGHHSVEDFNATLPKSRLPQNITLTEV

As for `NC(=O)c1cc(N2CC2)c([N+](=O)[O-])cc1[N+](=O)[O-]` [CB 1954, 5-(aziridin-1-yl)-2,4-dinitrobenzamide], the “substrate for the enzyme” value on E. coli nitroreductase is listed as “poor substrate”. Moreover, the “bystander effect: kill of CHO cells that do not contain nitroreductase” value in the data set with CHO cells is “substantially killed”.
